Measurements taken from publication PMC10746280, “Bacterial efflux pump modulators prevent bacterial growth in macrophages and under broth conditions that mimic the host environment” (mBio, 2023).

Columns and labels:
[1] = tested on: S. Typhimurium SL1344 (sifB::gfp) in RAW 264.7 macrophages; assay: SAFIRE macrophage assay: intracellular bacterial load (GFP signal within macrophages); assay type: cell-based, Salmonella enterica serotype Typhimurium; settings: for IC50: Salmonella enterica, TYPHIMURIUM, RAW264.7, read-out: SAFIRE IC50
Method in brief: (§1)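 Compound or DMSO added 2 h after gentamicin-protected infection (MOI ~30, sifB::gfp SL1344) of RAW 264.7 cells and left to 18 h. Fixed cells imaged; intracellular GFP area per macrophage gives bacterial load, while retained adherent MitoTracker Red-stained macrophages define host toxicity.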

RAW 264.7 macrophages = assay: SAFIRE macrophage assay: host toxicity (adherent macrophage count, morphology); assay type: cell-based
Method in brief: as §1

[2] = 5 uM, 'Toxic' given instead of a score
[3] = 25 uM, 'Toxic' given instead of a score
[4] = 5 uM compound, n=1, DMSO solvent control = 98, rifampicin 2 μg/mL = 65
[5] = 25 uM compound, n=1, DMSO solvent control = 98, rifampicin 2 μg/mL = 65
[6] = 5 uM compound, n=1, DMSO solvent control = 100
[7] = 25 uM compound, n=1, DMSO solvent control = 100

Row | Compound | 5 uM Avg Antibacterial Score [1, 2] | 25 uM Avg Antibacterial Score [1, 3] | 5 uM Avg Cell # Score (RAW 264.7 macrophages; 5 uM) | 25 uM Avg Cell # Score (RAW 264.7 macrophages; 25 uM) | IC50 [1] [nM] | 5 uM Avg Antibacterial Score [1, 4] | 25 uM Avg Antibacterial Score [1, 5] | 5 uM Avg Cell # Score (RAW 264.7 macrophages; [6]) | 25 uM Avg Cell # Score (RAW 264.7 macrophages; [7])
1 | NCC1CCN(CC(O)COc2cc(Cl)cc(Cl)c2)C1 (stereo not shown) [CU209] | 41 | 14 | 143 | 94 | – | – | – | – | –
2 | COCCCN(C)C1CCN(CC(O)COc2ccc(Cl)c(Cl)c2)CC1 (stereo not shown) [CU210] | 54 | 8 | 131 | 112 | 6 | – | – | – | –
3 | COCCN1CCN(CC(O)COc2ccc(Cl)c(Cl)c2)CC1 (stereo not shown) [CU211] | 100 | 50 | 120 | 115 | – | – | – | – | –
4 | OC(COc1ccc(Cl)c(Cl)c1)CN1CCN(Cc2cccc3ccccc23)CC1 (stereo not shown) [CU212] | Toxic | Toxic | 19 | 18 | – | – | – | – | –
5 | OC(COc1cc(Cl)cc(Cl)c1)CN1CCN(Cc2cccc3ccccc23)CC1 (stereo not shown) [CU213] | Toxic | Toxic | 41 | 15 | – | – | – | – | –
6 | NC1CCN(CC(O)COc2ccc3ccccc3c2)CC1 (stereo not shown) [CU214] | 28 | Toxic | 103 | 22 | – | – | – | – | –
7 | NC1CCN(CC(O)COc2cccc3ccccc23)CC1 (stereo not shown) [CU215] | 44 | Toxic | 106 | 17 | – | – | – | – | –
8 | N[C@H]1CC[C@@H](NCC(O)COc2cc(Cl)cc(Cl)c2)CC1 (stereo partly shown) [CU216] | 52 | Toxic | 102 | 22 | – | – | – | – | –
9 | N[C@H]1CC[C@H](NCC(O)COc2cc(Cl)cc(Cl)c2)CC1 (stereo partly shown) [CU217] | 65 | 16 | 106 | 96 | – | – | – | – | –
10 | N[C@H]1CC[C@@H](N2CC(COc3cc(Cl)cc(Cl)c3)OC2=O)CC1 (stereo partly shown) [CU218] | 83 | 15 | 163 | 131 | – | – | – | – | –
11 | N[C@H]1CC[C@H](N2CC(COc3cc(Cl)cc(Cl)c3)OC2=O)CC1 (stereo partly shown) [CU219] | 93 | 22 | 137 | 123 | – | – | – | – | –
12 | CN1CCN(CC(O)COc2ccc(Cl)c(Cl)c2)CC1=O (stereo not shown) [CU220] | 104 | 105 | 116 | 105 | – | – | – | – | –
13 | CN(C)CC1COCCN1CC(O)COc1ccc(Cl)c(Cl)c1 (stereo not shown) [CU221] | 106 | 84 | 104 | 106 | – | – | – | – | –
14 | OC(COc1ccc(Cl)c(Cl)c1)CN1C2CCC1COC2 (stereo not shown) [CU222] | 101 | 72 | 108 | 103 | – | – | – | – | –
15 | OC(COc1ccc(Cl)c(Cl)c1)CN1CC2CC(C1)O2 (stereo not shown) [CU223] | 104 | 103 | 106 | 100 | – | – | – | – | –
16 | OC(COc1ccc(Cl)c(Cl)c1)CN1CC2CCC1CO2 (stereo not shown) [CU224] | 100 | 69 | 117 | 95 | – | – | – | – | –
17 | OC(COc1ccc(Cl)c(Cl)c1)CN1CC2CC1CO2 (stereo not shown) [CU225] | 98 | 73 | 114 | 101 | – | – | – | – | –
18 | OC(COc1ccc(Cl)c(Cl)c1)CN1CC2CCC(C1)O2 (stereo not shown) [CU226] | 102 | 108 | 108 | 74 | – | – | – | – | –
19 | OC(COc1ccc(Cl)c(Cl)c1)CN1CCC2(CCO2)C1 (stereo not shown) [CU228] | 98 | 58 | 111 | 102 | – | – | – | – | –
20 | OC(COc1ccc(Cl)c(Cl)c1)CN1CCC2(CCO2)CC1 (stereo not shown) [CU229] | 101 | 83 | 147 | 141 | – | – | – | – | –
21 | NC1CCCN(CC(O)COc2ccc(Cl)c(Cl)c2)CC1 (stereo not shown) [CU230] | 34 | Toxic | 134 | 19 | – | – | – | – | –
22 | NC1CCCN(CC(O)COc2cc(Cl)cc(Cl)c2)CC1 (stereo not shown) [CU231] | – | – | – | – | – | 22 | Toxic | 112 | 19
23 | NC1CCN(CC(O)COc2ccccc2C(F)(F)F)CC1 (stereo not shown) [CU233] | – | – | – | – | – | 47 | 34 | 128 | 104

Row | Compound | 5 uM Avg Antibacterial Score [1, 2] | 25 uM Avg Antibacterial Score [1, 3] | 5 uM Avg Cell # Score (RAW 264.7 macrophages; 5 uM) | 25 uM Avg Cell # Score (RAW 264.7 macrophages; 25 uM) | IC50 [1] [nM] | 5 uM Avg Antibacterial Score [1, 4] | 25 uM Avg Antibacterial Score [1, 5] | 5 uM Avg Cell # Score (RAW 264.7 macrophages; [6]) | 25 uM Avg Cell # Score (RAW 264.7 macrophages; [7])
24 | OC(COc1cc(Cl)cc(Cl)c1)CN1CCC(n2ccnc2)CC1 (stereo not shown) [CU234] | – | – | – | – | – | 40 | 12 | 134 | 108
25 | CC1(N)CCN(CC(O)COc2ccc(Cl)c(Cl)c2)CC1 (stereo not shown) [CU235] | – | – | – | – | – | 20 | 14 | 125 | 84
26 | OC(CN[C@H]1[C@@H]2CNC[C@@H]21)COc1ccc(Cl)c(Cl)c1 (stereo partly shown) [CU236] | – | – | – | – | – | 53 | 18 | 121 | 99
27 | N[C@@H]1CCN(C[C@H](O)COc2ccc(Cl)c(Cl)c2)C1 [CU237] | – | – | – | – | 8.2 | 34 | 11 | 125 | 107
28 | N[C@H]1CCN(C[C@H](O)COc2ccc(Cl)c(Cl)c2)C1 [CU238] | – | – | – | – | – | 34 | 12 | 126 | 102
29 | N[C@@H]1CCN(C[C@@H](O)COc2ccc(Cl)c(Cl)c2)C1 [CU239] | – | – | – | – | 13.5 | 25 | 8 | 129 | 104
30 | N[C@H]1CCN(C[C@@H](O)COc2ccc(Cl)c(Cl)c2)C1 [CU240] | – | – | – | – | 9.1 | 29 | 10 | 118 | 105
31 | NC1CCN(CC(COc2ccc(Cl)c(Cl)c2)OCc2ccccc2)CC1 (stereo not shown) [CU241] | – | – | – | – | – | 30 | Toxic | 110 | 6
32 | COC(COc1ccc(Cl)c(Cl)c1)CN1CCC(N)CC1 (stereo not shown) [CU242] | – | – | – | – | – | 28 | 9 | 123 | 109
33 | CC1(N)CCN(CC(O)COc2cc(Cl)cc(Cl)c2)CC1 (stereo not shown) [CU243] | – | – | – | – | – | 21 | 12 | 129 | 90
34 | N[C@H]1CC[C@@H](NCC(O)COc2ccc(Cl)c(Cl)c2)CC1 (stereo partly shown) [CU245] | – | – | – | – | – | 66 | 16 | 122 | 103
35 | N[C@H]1CC[C@H](NCC(O)COc2ccc(Cl)c(Cl)c2)CC1 (stereo partly shown) [CU246] | – | – | – | – | – | 72 | 19 | 117 | 106
36 | OC(COc1cc(Cl)cc(Cl)c1)CN1CCCCC1 (stereo not shown) [CU247] | – | – | – | – | – | 93 | 50 | 118 | 111
37 | OC(COc1cc(Cl)cc(Cl)c1)CN1CCCC1 (stereo not shown) [CU248] | – | – | – | – | – | 93 | 48 | 115 | 108
38 | NCCC1CCN(CC(O)COc2ccc(Cl)c(Cl)c2)CC1 (stereo not shown) [CU249] | – | – | – | – | – | 17 | Toxic | 123 | 56
39 | NCCC1CCN(CC(O)COc2cc(Cl)cc(Cl)c2)CC1 (stereo not shown) [CU250] | – | – | – | – | – | 20 | Toxic | 115 | 26
40 | NCCC1CCN(CC(O)COc2ccc(Cl)c(Cl)c2)C1 (stereo not shown) [CU251] | – | – | – | – | – | 100 | 103 | 108 | 101
41 | NCCC1CCN(CC(O)COc2cc(Cl)cc(Cl)c2)C1 (stereo not shown) [CU252] | – | – | – | – | – | 98 | 77 | 114 | 117
42 | O[C@@H](COc1ccc(Cl)c(Cl)c1)CN1CCCCC1 [CU253] | – | – | – | – | – | 96 | 57 | 116 | 120
43 | O[C@@H](COc1ccc(Cl)c(Cl)c1)CN1CCCC1 [CU254] | – | – | – | – | – | 89 | 51 | 119 | 125
44 | CC(C)(C)c1nc(NC(=N)N)sc1Br [EPM30] | 92 | Toxic | 97 | 66 | – | – | – | – | –
45 | Cc1ccc(Sc2cccc3nc(N)nc(N)c23)cc1 [EPM43] | 81 | Toxic | 93 | 67 | – | – | – | – | –
